Laboratory results published in PMC11940194, “Synthesis, Antiproliferative Activity, and ADME Profiling of Novel Racemic and Optically Pure Aryl-Substituted Purines and Purine Bioisosteres” (Biomolecules, 2025).

Experiments:
[1] = test system: breast adenocarcinoma (MCF7) cells; assay: Antiproliferative MTT assay, MCF-7; type: cell-based, human; settings: for IC50: Homo sapiens, MCF7, 72 h incubation, MTT, mean ± SD; for SI (MCF-7): SI = [IC50 HFF]/[IC50 MCF-7]
How it was run: (§1)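 Cells grown in DMEM or MEM with 10% FBS at 37 °C, 5% CO2; tumour lines seeded at 3000 and fibroblasts at 5000 cells/well. Compounds added at 0.01 to 100 µM for 72 h, growth read by MTT. IC50 from dose–response curves by linear regression, tetraplicates, two experiments.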

[2] = test system: pancreatic ductal adenocarcinoma (CFPAC-1) cells; assay: Antiproliferative MTT assay, CFPAC-1; type: cell-based, human; settings: for IC50: Homo sapiens, CFPAC-1, 72 h, 72 h incubation, MTT, mean ± SD; for SI (CFPAC-1): SI = [IC50 HFF]/[IC50 CFPAC-1]
How it was run: as §1

[3] = test system: colorectal carcinoma (HT-29) cells; assay: Antiproliferative MTT assay, HT-29; type: cell-based, human; settings: for IC50: Homo sapiens, HT-29, 72 h, 72 h incubation, MTT, mean ± SD; for SI (HT-29): SI = [IC50 HFF]/[IC50 HT-29]
How it was run: as §1

[4] = test system: hepatocellular carcinoma (HepG2) cells; assay: Antiproliferative MTT assay, HepG2; type: cell-based, human; settings: for IC50: Homo sapiens, HepG2, 72 h, 72 h incubation, MTT, mean ± SD; for SI (HepG2): SI = [IC50 HFF]/[IC50 HepG2]
How it was run: as §1

[5] = test system: normal skin fibroblasts (HFF-1); assay: Cytotoxicity MTT assay, normal skin fibroblasts; type: cell-based, human; settings: Homo sapiens, HFF-1, 72 h, 72 h incubation, mean ± SD
How it was run: as §1

[6] = test system: MDCKII-MDR1 cells (P-glycoprotein); assay: MDCKII-MDR1 permeability assay; type: in vitro ADME, canine cells with over-expressed human MDR1 gene; settings: permeability class
Description: (§2) MDCKII-hMDR1 cells were obtained from Solvo Biotechnology, Hungary. DMEM, fetal bovine serum, Glutamax-100, Antibiotic/Antimycotic, DMSO, Dulbecco’s phosphate-buffered saline, and MEM Non-essential amino acids were purchased from Sigma (St. Louis, MO, USA). Bi-directional permeability and P-glycoprotein substrate assessments were carried out in Madin-Darby canine epithelial cells with the over-expressed human MDR1 gene (MDCKII-MDR1), coding for P-glycoprotein. Experimental procedures, as well as cell culture conditions, were the same as previously described. Briefly, compounds (10 µM, 1% DMSO v/v) in duplicate were incubated at 37 °C for 60 min with cell monolayer on 24-well Millicell inserts (Millipore, Burlington, MA, USA) with and without the P-glycoprotein inhibitor Elacridar (2 µM, International Laboratory, San Francisco, CA, USA). The inhibition of P-glycoprotein was verified by amprenavir (Moravek Biochemicals Inc, Brea, CA, USA) and monolayer integrity using Lucifer yellow (Sigma, St. Louis, MO, USA). LC-MS/MS measured compound concentrations and Lucifer yellow was measured on an Infinite F500 (Tecan, Männedorf, CH, Switzerland) using excitation of 485 nm and emission of 530 nm.
(§3) All samples were quantified using tandem mass spectrometry coupled to liquid chromatography. Samples were analyzed on a Sciex API4000 Triple Quadrupole Mass Spectrometer (Sciex, Division of MDS Inc., Toronto, Canada) coupled to a Shimadzu Nexera X2 UHPLC frontend (Kyoto, Japan). Samples were injected onto a UHPLC column (HALO2 C18, 2.1 × 20 mm, 2 µm or Luna Omega 1.6 µm Polar C18 100A, 30 × 2.1 mm) and eluted with a gradient at 50 °C. The mobile phase was composed of acetonitrile/water mixture (9/1, with 0.1% formic acid) and 0.1% formic acid in deionized water. The flow rate was 0.7 mL/min under gradient conditions, leading to a total run time of 1.5–2 min. A positive ion mode with turbo spray, an ion source temperature of 550 °C, and a dwell time of 150 ms were utilized for mass spectrometric detection. Quantitation was performed using multiple reaction monitoring (MRM) at the specific transitions for each compound.

[7] = test system: P-glycoprotein (human MDR1); assay: MDCKII-MDR1 permeability assay; type: in vitro ADME, canine cells with over-expressed human MDR1 gene; settings: dog, MDCK-MDR1; for Papp A→B at 60 min, 10 µM / Papp B→A at 60 min, 10 µM: 37 °C; for efflux ratio at 60 min, 10 µM: <2 no efflux, >2 active efflux
Description: as §2, §3

[8] = Metabolic stability in mouse liver microsomes; type: in vitro ADME; settings: for Clearance Values (CL): predicted in vivo hepatic clearance from mouse liver microsome t1/2, 1 µM compound; for Clearance Class.: mouse liver microsomes
Source text: Mouse liver microsomes were obtained from Corning Life Sciences (Corning, NY, USA). DMSO, nicotinamide adenine dinucleotide phosphate (NADP), glucose-6-phosphate, glucose-6-phosphate dehydrogenase, magnesium chloride, propranolol, caffeine, diclofenac, and phosphate-buffered saline (PBS) were purchased from Sigma (St. Louis, MO, USA). Acetonitrile (ACN) and methanol (MeOH) were obtained from Merck (Darmstadt, Germany). Testosterone was purchased from Steraloids (Newport, RI, USA). Metabolic stability was assessed in mouse liver microsomes. Compounds (final concentration of 1 µM, 0.03% DMSO v/v) were incubated in duplicate in phosphate buffer (50 mM, pH 7.4) at 37 °C together with mouse liver microsomes in the absence and presence of the NADPH cofactor (0.5 mM nicotinamide adenine dinucleotide phosphate, 5 mM glucose-6-phosphate, 1.5 U/mL glucose-6-phosphate dehydrogenase, and 0.5 mM magnesium chloride). Incubation and sampling were performed on a Freedom EVO 200 (Tecan, Männedorf, CH, Switzerland) at […], 10, 20, 30, 45, and 60 min. The reaction was quenched using 3 volumes of a mixture of ACN/MeOH (2:1) containing internal standard (diclofenac), centrifuged, and the supernatants were analyzed using LC-MS/MS. The metabolic activity of the microsomes was verified via simultaneous analysis of several controls including testosterone, propranolol, and caffeine. The in vitro half-life (t1/2) was calculated using GraphPad Prism (v9.0 software) non-linear regression of % of parent compound remaining versus time. In vitro clearance, expressed as µL/min/mg, was estimated from the in vitro half-life (t1/2) and normalized for the protein amount in the incubation mixture, assuming 52.5 mg of protein per gram of liver and using constant values for mouse liver weight/body weight [87.5 g/kg] and mouse liver blood flow (LBF) [131 mL/min/kg].
as §3

Row | Compound | IC50 [1] [µM] | IC50 [2] [µM] | SI (CFPAC-1) [2] | IC50 [3] [µM] | IC50 [4] [µM] | IC50 [5] [µM] | Permeability [6] | Papp A→B at 60 min, 10 µM [7] [×10⁻⁶ cm/s] | Papp B→A at 60 min, 10 µM [7] [×10⁻⁶ cm/s] | efflux ratio at 60 min, 10 µM [7] | Clearance Values (CL) [8] [%] | Clearance Class. [8] | SI (MCF-7) [1] | SI (HT-29) [3] | SI (HepG2) [4]
1 | OC(Cn1cc(Cn2ccc3ccccc32)nn1)c1ccc(Br)cc1 (stereo not drawn) [Compound 29b, 1-((1-(2-Hydroxy-2-(4-bromophenyl)ethyl)-1H-1,2,3-triazol-4-yl)methyl)-1H-indol] | 29 ± 14 | 43 ± 9.1 | 0.6 | 36 ± 1.4 | 35 ± 1.8 | 25 ± 4.1 | highest permeability and HIGH | 18.3 | 28.6 | 1.7 | 92 | – | – | – | –
2 | OC(Cn1cc(Cn2cnc3ccccc32)nn1)c1ccc(Br)cc1 (stereo not drawn) [Compound 34b, 1-((1-(2-Hydroxy-2-(4-bromophenyl)ethyl)-1H-1,2,3-triazol-4-yl)methyl)-1H-benzimidazole] | 39 ± 10.1 | 8 ± 3.2 | 4.0 | 70 ± 14.5 | 64 ± 19.5 | 32 ± 14.1 | MODERATE | 4.3 | 69.4 | 17.2 | 48 | MODERATE (30–70% moderate) | – | – | –
3 | OCC(c1ccc(Br)cc1)n1cc(Cn2ccc3c(Cl)ncnc32)nn1 (stereo not drawn) [Compound 44a, 4-Chloro-7-((1-(2-hydroxy-1-(4-bromophenyl)ethyl)-1H-1,2,3-triazol-4-yl)methyl)-7H-pyrrolo[2,3-d]pyrimidine] | 79 ± 17.6 | 69 ± 2 | 1.1 | 87 ± 9.9 | 83 ± 28.3 | 79 ± 17.6 | HIGH | 10.9 | 67.4 | 6.2 | 56 | MODERATE (30–70% moderate) | 1.0 | – | –
4 | OC(Cn1cc(Cn2ccc3c(Cl)ncnc32)nn1)c1ccc(Br)cc1 (stereo not drawn) [Compound 44b, 4-Chloro-7-((1-(2-hydroxy-2-(4-bromophenyl)ethyl)-1H-1,2,3-triazol-4-yl)methyl)-7H-pyrrolo[2,3-d]pyrimidine] | 25 ± 6.4 | 15 ± 0.2 | 1.8 | 30 ± 0.7 | 32 ± 3.2 | 27 ± 11.9 | highest permeability and HIGH | 25.3 | 62.7 | 2.5 | 84 | – | 1.1 | – | –
5 | OC(Cn1cc(Cn2ccc3c(Cl)ncnc32)nn1)c1ccc(C(F)(F)F)cc1 (stereo not drawn) [Compound 45b, 4-Chloro-7-((1-(2-hydroxy-2-(4-(trifluoromethyl)phenyl)ethyl)-1H-1,2,3-triazol-4-yl)methyl)-7H-pyrrolo[2,3-d]pyrimidine] | 21 ± 1.6 | 13 ± 2.2 | 0.9 | 19 ± 7.5 | 32 ± 16.1 | 12 ± 3.1 | highest permeability and HIGH | 26.5 | 90.7 | 3.4 | 90 | – | 0.6 | – | –
6 | O[C@@H](Cn1cc(Cn2cnc3c(Cl)ncnc32)nn1)c1ccc(C(F)(F)F)cc1 [Compound (R)-40b, (R)-6-Chloro-9-((1-(2-hydroxy-2-(4-(trifluoromethyl)phenyl)ethyl)-1H-1,2,3-triazol-4-yl)methyl)-9H-purine] | 36 ± 23.1 | 16 ± 2.6 | – | 6 ± 0.6 | 8 ± 0.6 | 6 ± 4.8 | MODERATE | 2.2 | 45.2 | 21 | – | LOW (<30% low) | – | 1.0 | 0.7
7 | O[C@H](Cn1cc(Cn2cnc3c(Cl)ncnc32)nn1)c1ccc(C(F)(F)F)cc1 [Compound (S)-40b, (S)-6-Chloro-9-((1-(2-hydroxy-2-(4-(trifluoromethyl)phenyl)ethyl)-1H-1,2,3-triazol-4-yl)methyl)-9H-purine] | 10 ± 0.4 | 19 ± 2.4 | – | 5 ± 0.1 | 7 ± 1.5 | 12 ± 3.4 | MODERATE | 2.2 | 42.9 | 19.5 | – | LOW (<30% low) | – | 2.4 | 1.7
